# Data reported in patent publication EP4813403A1, “USE OF GLP-1R/GIPR DOUBLE-TARGET AGONIST IN PREPARING ANIMAL DRUG” (Hangzhou Zhongmeihuadong Pharmaceutical Co., Ltd., priority 2023, dated 2025).
# Columns and labels:
# human GLP-1R = human GLP-1R (Homo sapiens, UniProt P43220); test: In vitro binding activity to human GLP-1 receptor ([125I]GLP-1 displacement, crude cell membranes); design: expressed in transfected cells; details: ratio of the Ki value of the endogenous ligand to the Ki value of the test compound; larger ratio = stronger binding
# Chain of human GLP-1R (P43220 24-463): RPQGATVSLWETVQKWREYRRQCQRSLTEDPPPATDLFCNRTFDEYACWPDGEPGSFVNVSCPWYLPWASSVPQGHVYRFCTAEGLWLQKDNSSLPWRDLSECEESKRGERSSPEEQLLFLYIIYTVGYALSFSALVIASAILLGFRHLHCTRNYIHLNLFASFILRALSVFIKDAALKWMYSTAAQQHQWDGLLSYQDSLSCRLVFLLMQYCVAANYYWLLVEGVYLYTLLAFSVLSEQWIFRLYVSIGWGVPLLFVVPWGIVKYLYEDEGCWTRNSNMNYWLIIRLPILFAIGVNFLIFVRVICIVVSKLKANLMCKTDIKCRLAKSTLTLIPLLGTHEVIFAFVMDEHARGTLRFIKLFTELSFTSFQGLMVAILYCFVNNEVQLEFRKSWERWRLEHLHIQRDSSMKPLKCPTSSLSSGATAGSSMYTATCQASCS
# Procedure: (§1) 89 µL of membrane dissolved in binding buffer (50 mM Hepes, pH 7.4, 5 mM MgCl2 , 5 mM EDTA, 0.005% TWEEN, 0.005% HSA) was transferred to a 96-well test plate (5 µg/well). The compound was serially diluted in DMSO, and then, 1 µL of the diluted compound or 100% DMSO was added to the test plate containing the membrane solution. 10 µL of [^125I] […] The test plate was left at room temperature for 90 minutes. The membrane complexes were harvested into a GF/B plate pre-coated with 0.5% PEI by using a Cell Harvester, and washed for 3 times with 500 µL of pre-cooled elution buffer (50 mM Hepes, pH 7.4, 500 mM NaCl) at 4°C. After drying at 37°C for 2 hours, 50 µL of scintillation fluid was added to each well. The plate was read with a MicroBeta2 scintillation counter after sealing and settling for at least 1 hour so as to determine the membrane bound radioligand level.
# The IC50 concentration was converted to Ki (Ki was the inhibition constant) using the Cheng-Prusoff equation.
# db/db mice = test: Pharmacodynamic effects in db/db mice, single subcutaneous administration (blood glucose); format: in vivo; details: single s.c. 10 nmol/kg, Group 2, longest time with p<0.05 vs. vehicle
# Procedure: In this study, 8-9 week old male db/db mice were used. The db/db mice were placed in an individual ventilated cage (IVC) facility with a controlled temperature (20-26°C) and humidity (40-70%) and a controlled 12h:12 h light-dark cycle. The mice can receive food and water ad libitum. Blood was sampled at the tail tip, and the random base blood glucose was measured by a Roche blood glucose meter. The mice were randomly divided into groups according to the random initial fasting blood glucose and initial body weight (n=6/group), and each group had similar body weight and blood glucose.
# After a single subcutaneous administration, the random base blood glucoses were recorded at the set time point (0 to 120 hours, the recording of the random base blood glucose was stopped until there was no difference between the random base blood glucose of the compound and that of the vehicle group), and the daily body weight and food intake were also recorded. The data results were statistically analyzed using GraphPad Prism8, and the statistical differences among the groups were analyzed following a T-Test. Significant differences were identified at p<0.05.
# Hypoglycemic Duration: the longest time during which the random base blood glucose of the compound has a significant difference (p<0.05) vs. the vehicle group. Table 13. Hypoglycemic Duration of the Compounds
# human GIP Receptor = target: T1, human GIP Receptor (Homo sapiens, UniProt P48546); test: In vitro binding activity to human GIP receptor ([125I]GIP displacement, crude cell membranes); details: ratio of the Ki value of the endogenous ligand to the Ki value of the test compound; larger ratio = stronger binding
# T1 construct: expressed in transfected cells
# T1 sequence (P48546 22-466): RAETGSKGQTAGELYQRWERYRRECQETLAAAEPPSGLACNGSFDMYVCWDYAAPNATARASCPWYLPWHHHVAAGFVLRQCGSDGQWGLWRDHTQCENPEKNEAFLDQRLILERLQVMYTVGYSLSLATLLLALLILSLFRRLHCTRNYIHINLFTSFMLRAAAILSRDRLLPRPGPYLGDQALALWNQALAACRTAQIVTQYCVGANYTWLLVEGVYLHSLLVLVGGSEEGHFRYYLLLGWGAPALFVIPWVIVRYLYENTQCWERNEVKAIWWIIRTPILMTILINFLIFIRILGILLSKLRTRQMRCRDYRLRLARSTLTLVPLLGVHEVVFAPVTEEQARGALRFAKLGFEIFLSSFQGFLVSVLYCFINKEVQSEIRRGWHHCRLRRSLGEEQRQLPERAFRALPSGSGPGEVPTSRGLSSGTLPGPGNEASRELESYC
# Procedure: as §1
# hGIP and the compound of the present invention were dissolved in DMSO and stored at -80°C. 98 µL of membrane dissolved in binding buffer (50 mM HEPES pH 7.4, 5 mM MgCl2, 1 mM CaCl2, 0.1% BSA, 0.005% Tween-20) was transferred to a 96-well test plate (15 µg/well). The compound was serially diluted in DMSO, and then, 2 µL of the diluted compounds or 100% DMSO was added to the test plate containing the membrane solution. […] The test plate was left at room temperature for 90 minutes. The membrane complexes were harvested into a GF/B plate pre-coated with 0.5% PEI by using a Cell Harvester, and washed for 3 times with 500 µL of pre-cooled elution buffer (50 mM Tris-HCl pH 7.4, 125 mM NaCl) at 4°C. After drying at 37°C for 2 hours, 50 µL of scintillation fluid was added to each well. The plate was read with a MicroBeta2 scintillation counter after sealing and settling for at least 1 hour so as to determine the membrane bound radioligand level.
# The IC50 concentration was converted to Ki (Ki was the inhibition constant) using the Cheng-Prusoff equation. Table 1. Receptor Binding Affinity, Ki Ratio
# [1] = Pharmacokinetics following single administration in SD rats; details: male, Sprague-Dawley, rat, in vivo, sc
# Procedure: The compound was administrated to male SD rats (230-268 g, n=3) at a dose of 50.0 nmol/kg (s.c.) or 25.0 nmol/kg (i.v.). […] 30.0 μL of thawed plasma sample was taken. 150 μL of acetonitrile solution (containing 5 ng·mL^-1 Verapamil , 50 ng·mL^-1 Glibenclamide, 200 ng·mL^-1 Tolbutamide and 200 ng·mL^-1 Diclofenac) were added to precipitate protein. The mixture was vortexed for 5 minutes, and centrifuged at 3700 rpm for 8 minutes. 70.0 μL of the supernatant was taken, into which 70.0 μL of 0.5% aqueous formic acid solution was added. The mixture was vortexed for 5 minutes. 15 μL of the mixture solution was sampled and injected into the LC-MS/MS to determine the drug concentration in plasma. 20.0 μL of thawed plasma sample was taken. 60 μL of acetonitrile solution (containing 5 ng·mL^-1 Verapamil, 50 ng·mL^-1 Glibenclamide, 200 ng·mL^-1 Tolbutamide and 200 ng·mL^-1 Diclofenac) were added to precipitate protein. […] The mixture was vortexed for 10 minutes. 10.0 μL of the mixture solution was sampled and injected into the LC-MS/MS to determine the drug concentration in plasma. 30.0 μL of thawed plasma sample was taken. 150 μL of acetonitrile solution (containing 5 ng·mL^-1 Verapamil, 50 ng·mL^-1 Glibenclamide, 200 ng·mL^-1 Tolbutamide and 200 ng·mL^-1 Diclofenac) were added to precipitate protein. The mixture was vortexed for 5 minutes, and centrifuged at 3700 rpm for 8 minutes. 70.0 μL of the supernatant was taken, into which 70.0 μL of 0.5% aqueous formic acid solution was added. The mixture was vortexed for 5 minutes. 10.0 μL of the mixture solution was sampled and injected into the LC-MS/MS to determine the drug concentration in plasma. […] Table 5 Pharmacokinetic Parameters after Subcutaneous Injection of Different Polypeptide Compounds to Rats
Structure (SMILES),GLP-1R Ki ratio (human GLP-1R),Hypoglycemic Duration (db/db mice),GIPR Ki ratio (human GIP Receptor),Tmax [1],half-life [1]
CC[C@H](C)[C@H](NC(=O)C(C)(C)NC(=O)[C@H](Cc1ccc(O)cc1)NC(=O)[C@H](CC(=O)O)NC(=O)[C@H](CO)NC(=O)[C@@H](NC(=O)C(C)(Cc1ccccc1)NC(=O)[C@@H](NC(=O)CNC(=O)[C@H](CCC(=O)O)NC(=O)C(C)(C)NC(=O)[C@@H](N)Cc1ccc(O)cc1)[C@@H](C)O)[C@@H](C)O)C(=O)NC(C)(C)C(=O)N[C@@H](CC(C)C)C(=O)N[C@@H](CC(=O)O)C(=O)N[C@@H](CCCCN)C(=O)N[C@@H](CCC(N)=O)C(=O)N[C@@H](C)C(=O)N[C@@H](CCC(N)=O)C(=O)N[C@@H](C)C(=O)N[C@@H](CCC(=O)O)C(=O)N[C@@H](Cc1ccccc1)C(=O)N[C@H](C(=O)N[C@@H](CCCCNC(=O)COCCOCCNC(=O)COCCOCCNC(=O)CC[C@H](NC(=O)CCCCCCCCCCCCCCCCCCC(=O)O)C(=O)O)C(=O)N[C@@H](Cc1c[nH]c2ccccc12)C(=O)N[C@@H](CC(C)C)C(=O)N[C@@H](CC(C)C)C(=O)N[C@@H](CCCCN)C(=O)NCC(=O)NCC(=O)N1CCC[C@H]1C(=O)N[C@@H](CO)C(=O)N[C@@H](CO)C(=O)NCC(=O)N[C@@H](C)C(=O)N1CCC[C@H]1C(=O)N1CCC[C@H]1C(=O)N1CCC[C@H]1C(=O)N[C@@H](CO)C(=O)N[C@@H](CCCCN)C(N)=O)C(C)C (stereo partly shown) [Compound P013],0.28,72 h,0.14,24 h,15 ± 0.737 h
CC[C@H](C)[C@H](NC(=O)C(C)(C)NC(=O)[C@H](Cc1ccc(O)cc1)NC(=O)[C@H](CC(=O)O)NC(=O)[C@H](CO)NC(=O)[C@@H](NC(=O)C(C)(Cc1ccccc1)NC(=O)[C@@H](NC(=O)CNC(=O)[C@H](CCC(=O)O)NC(=O)C(C)(C)NC(=O)[C@@H](N)Cc1ccc(O)cc1)[C@@H](C)O)[C@@H](C)O)C(=O)NC(C)(C)C(=O)N[C@@H](CC(C)C)C(=O)N[C@@H](CC(=O)O)C(=O)N[C@@H](CCCCN)C(=O)N[C@@H](CCC(N)=O)C(=O)N[C@@H](C)C(=O)N[C@@H](CCC(N)=O)C(=O)N[C@@H](C)C(=O)N[C@@H](CCC(=O)O)C(=O)N[C@@H](Cc1ccccc1)C(=O)N[C@H](C(=O)N[C@@H](CCCCN)C(=O)N[C@@H](Cc1c[nH]c2ccccc12)C(=O)N[C@@H](CC(C)C)C(=O)N[C@@H](CC(C)C)C(=O)N[C@@H](CCCCNC(=O)COCCOCCNC(=O)COCCOCCNC(=O)CC[C@H](NC(=O)CC[C@H](NC(=O)CC[C@H](NC(=O)CCCCCCCCCCCCCCCCC(=O)O)C(=O)O)C(=O)O)C(=O)O)C(=O)NCC(=O)NCC(=O)N1CCC[C@H]1C(=O)N[C@@H](CO)C(=O)N[C@@H](CO)C(=O)NCC(=O)N[C@@H](C)C(=O)N1CCC[C@H]1C(=O)N1CCC[C@H]1C(=O)N1CCC[C@H]1C(=O)N[C@@H](CO)C(=O)N[C@@H](CCCCN)C(N)=O)C(C)C (stereo partly shown) [Compound P018],1.45,48 h,0.05,24 h,18.3 ± 6.77 h
